From patent publication US5609875A, “Skin whitening composition” (Fischer Pharmaceuticals Ltd., priority 1994, dated 1997) come the findings set out here.

For this experiment, the system named is tyrosinase. Put plainly: In vitro tyrosinase inhibitory activity, colorimeter comparison at 475 nm. The class given is biochemical. An excerpt: Test in vitro on the effect of glycolic acid and glycyrrhiza dry extract on tyrosinase inhibitory activity has been carried out based on the Methodology of Maruzene Pharmaceuticals. The anti-tyrosinase activity was investigated by colorimeter comparison at 475 nm and calculated as percentage of the inhibitory activities. (Attached are the results).

Consider `O=C(O)CO` [Glycolic acid], for which the “% Tyrosinase Inhibition Test 1” value is on record as 4.86% (Glycolic acid 0.42 mg/5 ml), 5.64% (Glycolic acid 0.805 mg/5 ml), 7.60% (Glycolic acid 1.61 mg/5 ml) and 10.74% (Glycolic acid 7.21 mg/5 ml). Besides, the “% Tyrosinase Inhibition Test 2” value turned out to be 9.12% (Glycolic acid 0.42 mg/5 ml), 16.11% (Glycolic acid 0.805 mg/5 ml), 21.32% (Glycolic acid 1.61 mg/5 ml) and 27.81% (Glycolic acid 7.21 mg/5 ml).
